{
  "source": "patent US20230380435A1",
  "about": "“METHOD FOR PREPARING AND PRESERVING SANITIZED PRODUCTS” (Apeel Technology, Inc., priority 2016, published 2023)",
  "key": {"[1]": {"test_system": "blueberries", "experiment": "Effect of ethanol on post-harvest mass loss of blueberries", "conditions": "after just under four days, solvent only, no coating agent, 23-27 °C, humidity 40%-55%", "source_text": "The blueberries were all harvested simultaneously and divided into groups, each of the groups being qualitatively identical to the other groups (i.e., all groups had blueberries of approximately the same average size and quality).\nBlueberries were harvested simultaneously and divided into four groups of sixty blueberries each, each of the groups being qualitatively identical (i.e., all groups had blueberries of approximately the same average size and quality). The first group of blueberries was not washed or treated in any way and served as a control group.\nTo treat the blueberries with the various solvents, the blueberries were placed in bags, and the solvent was poured into the bag. The bag was then sealed and lightly agitated until the entire surface of each blueberry was wet. The blueberries were then removed from the bag and allowed to dry on drying racks. The blueberries were kept under ambient room conditions at a temperature in the range of 23° C.-27° C. and humidity in the range of 40%-55% while they dried and for the entire duration of the time they were tested."}, "[2]": {"test_system": "Botrytis", "conditions": "applied for 10 at least seconds; cited from earlier work"}, "[3]": {"test_system": "Listeria monocytogenes", "conditions": "cited from earlier work"}},
  "data": [
    {"smiles": "CCO", "note": "[substantially pure ethanol (108), ethanol]", "values": [
      {"measurement": "average percent mass loss", "setting": "[1]", "value": "about 19%"},
      {"measurement": "ethanol concentration inhibiting germination", "setting": "[2]", "value": "≥ 30", "unit": "%"},
      {"measurement": "ethanol concentration inhibiting (not completely stopping) growth", "setting": "[3]", "value": 5, "unit": "%"}
    ]}
  ]
}
